Laboratory results reported in the supplement of paper PMC8967900.

These molecules were tested on MHH-CALL-3 (assay: selective drug sensitivity score (sDSS, relative to normal bone marrow) (sDSS (score)); higher = more potent and effective on the cell line relative to normal bone marrow cells). Conditions: 72 h.
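Also: ALL cell lines in 384-well plates, five doses spanning 10,000-fold, each plate scaled between vehicle and 100 µmol/L benzalkonium chloride controls, sDSS an adapted area-under-curve metric.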

| Compound | selective drug sensitivity score |
| --- | --- |
| C=CCN(/C=C1/C(=O)O[C@H](COC)[C@@]2(C)C1=C(O)C(=O)C1=C2[C@H](OC(C)=O)C[C@]2(C)C(=O)CC[C@@H]12)CC=C [Sonolisib] (top concentration 10000 nM) | -0.76 |
| C[C@H]1CNCCCN1S(=O)(=O)c1cccc2cncc(F)c12 [Ripasudil] (top concentration 10000 nM) | -0.22 |
| C[C@@H](Oc1cc(-c2cnn(C3CCNCC3)c2)cnc1N)c1c(Cl)ccc(F)c1Cl [Crizotinib] (top concentration 1000 nM) | -0.54 |
| CCN(CC)CCCC(C)Nc1ccnc2cc(Cl)ccc12 (stereo not drawn) [Chloroquine] (top concentration 100000 nM) | -6.04 |
| N#CC(c1ccnc(OCc2ccc(CN3CCOCC3)cc2)n1)c1nc2ccccc2s1 (stereo not drawn) [Bentamapimod] (top concentration 10000 nM) | -0.46 |
| COc1cc(N2CCC(N3CCN(C)CC3)CC2)ccc1Nc1ncnc(Nc2ccccc2S(=O)(=O)C(C)C)n1 [ASP3026] (top concentration 10000 nM) | -4.04 |
| COCCOc1cnc2ccn([C@H](C)c3nnc4c(F)cc(-c5cnn(C)c5)cn34)c(=O)c2c1 [AMG-337] (top concentration 10000 nM) | 4.94 |
| Cc1cnc(NC(=O)Nc2cc(Br)c(C)cc2OC[C@@H]2CNCCO2)cn1 [Rabusertib] (top concentration 1000 nM) | -0.74 |
| CNC(=O)c1ccc(-c2cnc3ncc(Cc4ccc5ncccc5c4)n3n2)cc1F [Capmatinib] (top concentration 1000 nM) | -0.06 |
| COc1cc2/c(=N/c3ccc(Br)cc3F)nc[nH]c2cc1OCC1CCN(C)CC1 [Vandetanib] (top concentration 1000 nM) | 0.78 |

Each molecule was assayed on NALM-16 in the same assay as above. Conditions: 72 h.

| Compound | selective drug sensitivity score |
| --- | --- |
| O=C1c2c(O)ccc(O)c2C(=O)c2c(NCCNCCO)ccc(NCCNCCO)c21 [Mitoxantrone] (top concentration 1000 nM) | -5.06 |
| Nc1ncnc2c1c(COc1cccc(Cl)c1)nn2C1CCOCC1 (top concentration 10000 nM) | -0.64 |
| CC1(C)CNc2cc(NC(=O)c3cccnc3NCc3ccncc3)ccc21 [Motesanib] (top concentration 10000 nM) | -0.22 |
| NC(=O)c1cccc(-c2cccc(OC(=O)NC3CCCCC3)c2)c1 [URB597] (top concentration 1000 nM) | -0.46 |
| CCCN(CCC)C(=O)C1=Cc2ccc(-c3ccc(C(=O)N4CCCC4)cc3)cc2N=C(N)C1 [Motolimod] (top concentration 10000 nM) | -4.48 |
| CCCOc1ccn2c(C(C)=O)cc(-c3ccccc3S(C)(=O)=O)c2c1 [GSK2801] (top concentration 10000 nM) | -0.36 |
| Nc1cc(COc2c(Cl)cc(C[C@H](N)C(=O)O)cc2Cl)c2oc(-c3ccccc3)nc2c1 [JPH203] (top concentration 5000 nM) | 0 |
| CC/C(=C(\c1ccccc1)c1ccc(OCCN(C)C)cc1)c1ccccc1 [Tamoxifen] (top concentration 10000 nM) | -3.18 |
| NC(=S)N/N=C/c1ncccc1N [Triapine] (top concentration 10000 nM) | 2.68 |
| C=CCN(/C=C1/C(=O)O[C@H](COC)[C@@]2(C)C1=C(O)C(=O)C1=C2[C@H](OC(C)=O)C[C@]2(C)C(=O)CC[C@@H]12)CC=C [Sonolisib] (top concentration 10000 nM) | -0.56 |
| C[C@H]1CNCCCN1S(=O)(=O)c1cccc2cncc(F)c12 [Ripasudil] (top concentration 10000 nM) | -0.22 |
| C[C@@H](Oc1cc(-c2cnn(C3CCNCC3)c2)cnc1N)c1c(Cl)ccc(F)c1Cl [Crizotinib] (top concentration 1000 nM) | -0.54 |
| CCN(CC)CCCC(C)Nc1ccnc2cc(Cl)ccc12 (stereo not drawn) [Chloroquine] (top concentration 100000 nM) | -5.24 |
| N#CC(c1ccnc(OCc2ccc(CN3CCOCC3)cc2)n1)c1nc2ccccc2s1 (stereo not drawn) [Bentamapimod] (top concentration 10000 nM) | -0.46 |
| COc1cc(N2CCC(N3CCN(C)CC3)CC2)ccc1Nc1ncnc(Nc2ccccc2S(=O)(=O)C(C)C)n1 [ASP3026] (top concentration 10000 nM) | -2.64 |
| COCCOc1cnc2ccn([C@H](C)c3nnc4c(F)cc(-c5cnn(C)c5)cn34)c(=O)c2c1 [AMG-337] (top concentration 10000 nM) | -0.06 |
| Cc1cnc(NC(=O)Nc2cc(Br)c(C)cc2OC[C@@H]2CNCCO2)cn1 [Rabusertib] (top concentration 1000 nM) | -0.74 |
| CNC(=O)c1ccc(-c2cnc3ncc(Cc4ccc5ncccc5c4)n3n2)cc1F [Capmatinib] (top concentration 1000 nM) | -0.06 |
| COc1cc2/c(=N/c3ccc(Br)cc3F)nc[nH]c2cc1OCC1CCN(C)CC1 [Vandetanib] (top concentration 1000 nM) | -0.22 |

Each molecule was assayed on COG-LL-319h in the same assay as above. Conditions: 72 h.

| Compound | selective drug sensitivity score |
| --- | --- |
| O=C1c2c(O)ccc(O)c2C(=O)c2c(NCCNCCO)ccc(NCCNCCO)c21 [Mitoxantrone] (top concentration 1000 nM) | 16.3 |
| Nc1ncnc2c1c(COc1cccc(Cl)c1)nn2C1CCOCC1 (top concentration 10000 nM) | 3.96 |
| CC1(C)CNc2cc(NC(=O)c3cccnc3NCc3ccncc3)ccc21 [Motesanib] (top concentration 10000 nM) | 0.08 |
| NC(=O)c1cccc(-c2cccc(OC(=O)NC3CCCCC3)c2)c1 [URB597] (top concentration 1000 nM) | 5.14 |
| CCCN(CCC)C(=O)C1=Cc2ccc(-c3ccc(C(=O)N4CCCC4)cc3)cc2N=C(N)C1 [Motolimod] (top concentration 10000 nM) | -4.18 |
| CCCOc1ccn2c(C(C)=O)cc(-c3ccccc3S(C)(=O)=O)c2c1 [GSK2801] (top concentration 10000 nM) | 4.44 |
| Nc1cc(COc2c(Cl)cc(C[C@H](N)C(=O)O)cc2Cl)c2oc(-c3ccccc3)nc2c1 [JPH203] (top concentration 5000 nM) | 0 |
| CC/C(=C(\c1ccccc1)c1ccc(OCCN(C)C)cc1)c1ccccc1 [Tamoxifen] (top concentration 10000 nM) | 5.42 |
| NC(=S)N/N=C/c1ncccc1N [Triapine] (top concentration 10000 nM) | 10.6 |
| C=CCN(/C=C1/C(=O)O[C@H](COC)[C@@]2(C)C1=C(O)C(=O)C1=C2[C@H](OC(C)=O)C[C@]2(C)C(=O)CC[C@@H]12)CC=C [Sonolisib] (top concentration 10000 nM) | 4.24 |
| C[C@H]1CNCCCN1S(=O)(=O)c1cccc2cncc(F)c12 [Ripasudil] (top concentration 10000 nM) | 1.18 |
| C[C@@H](Oc1cc(-c2cnn(C3CCNCC3)c2)cnc1N)c1c(Cl)ccc(F)c1Cl [Crizotinib] (top concentration 1000 nM) | -0.54 |
| CCN(CC)CCCC(C)Nc1ccnc2cc(Cl)ccc12 (stereo not drawn) [Chloroquine] (top concentration 100000 nM) | -5.84 |
| N#CC(c1ccnc(OCc2ccc(CN3CCOCC3)cc2)n1)c1nc2ccccc2s1 (stereo not drawn) [Bentamapimod] (top concentration 10000 nM) | -0.06 |
| COc1cc(N2CCC(N3CCN(C)CC3)CC2)ccc1Nc1ncnc(Nc2ccccc2S(=O)(=O)C(C)C)n1 [ASP3026] (top concentration 10000 nM) | -4.04 |
| COCCOc1cnc2ccn([C@H](C)c3nnc4c(F)cc(-c5cnn(C)c5)cn34)c(=O)c2c1 [AMG-337] (top concentration 10000 nM) | -0.06 |
| Cc1cnc(NC(=O)Nc2cc(Br)c(C)cc2OC[C@@H]2CNCCO2)cn1 [Rabusertib] (top concentration 1000 nM) | 4.26 |
| CNC(=O)c1ccc(-c2cnc3ncc(Cc4ccc5ncccc5c4)n3n2)cc1F [Capmatinib] (top concentration 1000 nM) | 14.9 |
| COc1cc2/c(=N/c3ccc(Br)cc3F)nc[nH]c2cc1OCC1CCN(C)CC1 [Vandetanib] (top concentration 1000 nM) | -0.22 |
